Data on 2 molecules can be found in patent publication US20200061026A1, “METHODS AND COMPOSITIONS FOR PREVENTING VECTOR-BORNE DISEASE TRANSMISSION” (The Scripps Research Institute, priority 2016, published 2020).

The test system of data set [1] is Anopheles stephensi. Kind of data set: Standard membrane feeding assay, Anopheles stephensi. It counts as in vivo. Particulars: for IC50: Anopheles stephensi; for killing of mosquitos (in words): lethality 1, 2 or 8 days after exposure; for whole blood IC99: mosquitocidal. The method, then:
Mosquito colonies utilized in the examples were generally maintained as described: The colony of Anopheles stephensi (Sind-Kasur Nijmegen strain) was maintained at the Radboud University Medical Center, Nijmegen, The Netherlands, by 30° C. and 70-80% humidity and on a 12/12 hour day/night cycle. The Anopheles gambiae strains Kisumu and Tiassalé and the Aedes aegypti strains New Orleans and Cayman were reared at the Liverpool Insect Testing Establishment, Liverpool, UK. Kisumu is an insecticide susceptible lab strain. New Orleans was originally colonized by the Centers for Disease Control and Prevention. The Tiassalé strain was colonized from Southern Cote D'Ivoire where resistance to all classes of insecticide is found and the Cayman strain was colonized from Grand Cayman, where Aedes aegypti are highly resistant to DDT and pyrethroid insecticides. Both resistant strains are routinely selected with insecticides to ensure the maintenance of resistance, 0.75% permethrin for Cayman and 0.05% deltamethrin for Tiassalé, and profiled for resistance to a range of insecticides, including 4% dieldrin, to which Tiassalé is resistant but Cayman is susceptible.
(§1) Isoxazoline compounds fluralaner or afoxolaner were reconstituted in 50% human serum and 50% red blood cells and administered to adult Anopheles stephensi mosquitos via standard membrane feeding. Lethality was assessed 1, 2 or 8 days after exposure. FIG. 2A represents a plot of viable Anopheles stephensi versus fluralaner concentration at each day of assessment. FIG. 2B represents a plot of viable Anopheles stephensi versus afoxolaner concentration at each day of assessment. […] The IC50 values of each compound for Anopheles death were determined by logistic regression using a least squares method to find the best fit and are shown in Table 1. IC50 values were calculated by applying a four-parameter logistic regression model using a least-squares method to find the best fit using the Graphpad Prism 5.0 software package.
FIG. 2C represents a plot of viable Anopheles stephensi versus fluralaner concentration at each time of assessment. FIG. 2D represents a plot of viable Anopheles stephensi versus afoxolaner concentration at each time of assessment. FIG. 2E represents plots of viable Anopheles stephensi versus concentration of (S)- and (R)-enantiomers of afoxolaner at each time of assessment. […] The IC50 (M) concentrations are also shown for FIGS. 2C and 2D.

For data set [2] the following is noted: cited from earlier work.
Data set [3] relates to Anopheles mosquitos. The data set can be described thus: Lethal duration estimated by extrapolating published Beagle dog PK curves to killing concentrations. An excerpt:
Data for fluralaner in Beagle dogs was obtained from Walther et al., Parasites & Vectors 8:508. Data from afoxolaner in Beagle dogs was obtained from Letendre et al., Veterinary Parasitology, 201, 190-197.
The lethal duration of fluralaner and afoxolaner was estimated by extrapolating pharmacokinetic curves from published studies in Beagle dogs to the killing concentrations determined by the membrane feeding studies described in Example 2. Data for fluralaner in Beagle dogs was obtained from Walther et al., Parasites & Vectors 8:508. Data from afoxolaner in Beagle dogs was obtained from Letendre et al., Veterinary Parasitology, 201, 190-197. A mathematical model was used to estimate the impact of these compounds on Anopheles stephensi mosquito survival.

The subject of data set [4] is Lutzomyia longipalpis. The data set can be described thus: Membrane feeding, sand fly Lutzomyia longipalpis. Particulars: in vivo. An excerpt:
(§2) Isoxazoline compounds fluralaner or afoxolaner were reconstituted in 50% human serum and 50% red blood cells and administered to sand flies Lutzomyia longipalpis and Phlebotomus argentipes via standard membrane feeding. These san fly species are vectors for visceral leishmaniasis. FIG. 12A represents a plot of viable Lutzomyia longipalpis versus fluralaner concentration at various times of assessment. FIG. 12B represents a plot of viable Lutzomyia longipalpis versus afoxolaner concentration at various times of assessment. FIG. 12C represents a plot of viable Phlebotomus argentipes versus fluralaner concentration at various times of assessment. FIG. 12D represents a plot of viable Phlebotomus argentipes versus afoxolaner concentration at various times of assessment. […] The EC50 values of each compound for sand fly death were determined by logistic regression using a least squares method to find the best fit and are shown in the figures.

For data set [5], the system named is Aedes aegypti (Cayman). The data set can be described thus: Membrane feeding, Aedes aegypti Cayman strain. It counts as in vivo. The note with it: read-out: IC50 [95% CI].
For data set [6], the system named is Aedes aegypti (New Orleans). The data set can be described thus: Membrane feeding, Aedes aegypti New Orleans strain. It is filed as in vivo. The note with it: read-out: IC50 [95% CI].
A short description of data set [7]: Further in vitro degradation assay, rat primary hepatocytes. The method, then: In a further assay, isoxazolines (fluralaner and afoxolaner) and control compounds (7-Ethoxycoumarin and 7-Hydroxycoumarin [Sigma]) were dissolved in DMSO at 10 and 30 mM respectively, then diluted first 20-fold with 45% methanol in water and a further 10-fold in pre-warmed Williams' Medium E. Cryopreserved human, dog and rat hepatocytes (In Vitro Technologies) were thawed, isolated by percoll gradient and suspended in Williams' Medium E. Cells were then dispensed into the wells of 96-well plates containing 10 μL of diluted compounds, to reach a final concentration of 0.5×10^6 cells/mL and 1 μM of isoxazolines or 3 μM of control. After an incubation at 37° C. of 0, 15, 30, 60 or 90 minutes, the reaction was stopped with acetonitrile. The samples were then shaken for 10 minutes at 500 rpm and centrifuged at 3220 g for 20 minutes. Supernatants were transferred and stored at 4° C. until LC-MS-MS analysis.

Data set [8] concerns various Anopheles and Aedes mosquitos. The data set can be described thus: Membrane feeding, all Anopheles and Aedes strains tested. It is filed as in vivo. The note with it: read-out: IC50 values, range against all strains tested. On the procedure: as §1
For data set [9], the system named is Anopheles gambiae (Kisumu). Kind of data set: Membrane feeding, Anopheles gambiae Kisumu strain. It is filed as in vivo. The note with it: read-out: IC50 [95% CI]. The method, then: Mosquito colonies utilized in the examples were generally maintained as described: The colony of Anopheles stephensi (Sind-Kasur Nijmegen strain) was maintained at the Radboud University Medical Center, Nijmegen, The Netherlands, by 30° C. and 70-80% humidity and on a 12/12 hour day/night cycle. The Anopheles gambiae strains Kisumu and Tiassalé and the Aedes aegypti strains New Orleans and Cayman were reared at the Liverpool Insect Testing Establishment, Liverpool, UK. Kisumu is an insecticide susceptible lab strain. New Orleans was originally colonized by the Centers for Disease Control and Prevention. […]
as §1, with “exposure.” for “exposure. FIG. 2A represents a plot of viable Anopheles stephensi versus fluralaner concentration at each day of assessment. FIG. 2B represents a plot of viable Anopheles stephensi versus afoxolaner concentration at each day of assessment.”, “package. […]” for “package.”

Data set [10] deals with Phlebotomus argentipes. The data set can be described thus: Membrane feeding, sand fly Phlebotomus argentipes. The note with it: in vivo.
Source text: as §2

Where “and” joins values, the source holds several entries; their conditions need not be identical. Equal entries are not always repeated. Where two headings read alike, the source gives them in different places.

What is called IC50 is the concentration at which inhibition is half-maximal. By half-life is commonly meant how long it takes for the measured level to halve. The term hepatocyte CLint denotes a measure of how fast metabolising enzymes remove a compound, apart from limits set by blood flow. The low end stands for slow turnover, the high end for rapid turnover. Take `Cc1cc(C2=NO[C@](c3cc(Cl)cc(Cl)c3)(C(F)(F)F)C2)ccc1C(=O)NCC(=O)NCC(F)(F)F` [Fluralaner, fluralaner]: the IC50 in data set [1] (24 h, 1 day after exposure, read-out: IC50 (Anopheles death)) worked out at 54 nM; in data set [1] (48 h, 2 days after exposure, read-out: IC50 (Anopheles death)), 42 nM; in data set [1] (192 h, 8 days after exposure, read-out: IC50 (Anopheles death)), 37 nM; in [1] (24 hours after the blood meal, read-out: IC50 [95% CI]), 56 nM; in data set [5] (24 hours after the blood meal, Cayman strain), 35.8 nM; in data set [6] (24 hours after the blood meal, New Orleans strain), 34.2 nM. The IC50 in [8] (twenty-four hours after the blood meal) is 33 to 56 nM; in data set [9] (24 hours after the blood meal, Kisumu strain), 33.3 nM. The “killing of mosquitos (in words)” value in data set [1] is reported as “effective at killing the mosquitos in a dose-dependent manner”. In addition, in data set [1], the “whole blood IC99” value was 119 nM and 66 ng/mL. Besides, the “embryo-fetal development in rats” value in data set [2] is reported as “unaffected”. For the same molecule, the “time the concentration is above the level lethal to Anopheles mosquitos” value in data set [3] (dose of 56 mg/kg) is on record as 72 days. The “killing of sand flies (in words)” value in data set [4] and in data set [10] was “effective at killing the sand flies in a dose-dependent manner” in each case. For the same molecule, the half-life in data set [7] (cryopreserved hepatocytes) is above 3.61 h. The hepatocyte CLint in [7] (cryopreserved hepatocytes) is below 6.4 µL/min/1e6 cells.
`O=C(CNC(=O)c1ccc(C2=NO[C@](c3cc(Cl)cc(C(F)(F)F)c3)(C(F)(F)F)C2)c2ccccc12)NCC(F)(F)F` (racemic) [Afoxolaner, afoxolaner]: the half-inhibitory concentration (IC50) turned out to be 107 nM in data set [1] (24 h, read-out: IC50 (Anopheles death)); 107 nM in data set [1] (24 h, read-out: IC50 [95% CI]); 34 nM in data set [1] (48 h, read-out: IC50 (Anopheles death)); 14 nM in data set [1] (192 h, read-out: IC50 (Anopheles death)); 90.2 nM in data set [5] (24 h); 100 nM in [6] (24 h). Moreover, the IC50 in data set [8] was 90 to 107 nM; in [9] (24 h) it was 101 nM. Moreover, in [1], the “killing of mosquitos (in words)” value is reported as “effective at killing the mosquitos in a dose-dependent manner”. Further, the “whole blood IC99” value in data set [1] is 233 nM and 146 ng/mL. The “embryo-fetal development in rats” value in data set [2] is “unaffected”. Also, the “time the concentration is above lethal level” value is given as 43 days in data set [3] (1 mg/kg) and 72 days in data set [3] (4 mg/kg). Further, the “killing of sand flies (in words)” value in data set [4] and in data set [10] was “effective at killing the sand flies in a dose-dependent manner” in each case. In data set [7] (hepatocytes), the half-life was above 3.61 h. Also, the hepatocyte CLint in data set [7] (hepatocytes) was below 6.4 µL/min/1e6 cells.
